Data taken from PubChem BioAssay (NCI).
Values joined by “and” are separate entries in the source; they are usually repeats but may differ in a detail not shown here. Equal entries are not always repeated.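 1) Cells in 96-well plates. 2) Compound, 48 h, 5 concentrations. 3) Linear interpolation between surrounding doses. 4) Unreached endpoint = highest concentration. GI50 marks 50% less growth. Definition used: TGI = concentration required for complete inhibition of growth.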

Experiments:
Assay in all cases: inhibition of tumour cell growth, NCI panel, 48 h
[1] = tested on: SNB-19 CNS
[2] = tested on: MDA-MB-231 breast
[3] = tested on: MCF7 breast
[4] = tested on: NCI-H460 lung
[5] = tested on: HL-60(TB) leukemia
[6] = tested on: A498 renal
[7] = tested on: A549 NSCLC
[8] = tested on: MOLT-4 leukemia
[9] = tested on: SF-295 CNS
[10] = tested on: T-47D breast

Row | SMILES | GI50 [1] | TGI [1] | GI50 [2] | TGI [2] | GI50 [3] | TGI [3] | GI50 [4] | TGI [4] | GI50 [5] | TGI [5] | GI50 [6] | TGI [6] | GI50 [7] | TGI [7] | GI50 [8] | TGI [8] | GI50 [9] | TGI [9] | GI50 [10] | TGI [10]
1 | O=C(Nc1ccccc1)NS(=O)(=O)c1ccc(-n2nc3c(c2-c2ccc(Cl)cc2)Cc2ccccc2-3)cc1 | 61.5 µM | > 100 µM | 14.7 µM | 63.3 µM | 11.2 µM | 28.2 µM | 22.3 µM | 85.1 µM | 13.4 µM | 35.6 µM | 21.8 µM | 66.8 µM | 24.5 µM | > 100 µM | 7.05 µM | 42.4 µM | 18.2 µM | 78.1 µM | 49.9 µM | > 100 µM
2 | CCCCCCCCCCCC1CCCC(C)N1 (stereo not given) | 11.4 µM | 25.3 µM and 155 µM | 3.99 µM | 18 µM | 3.24 µM |  | 3.67 µM | 12.5 µM and 118 µM | 1.15 µM |  | 16.2 µM | 31.9 µM and 154 µM | 13.4 µM | 32.7 µM and 164 µM | 1.79 µM |  | 13.5 µM | 28.3 µM and 154 µM | 2.16 µM | 12.8 µM
3 | C=C1CC/C=C(\C)C(=O)C[C@@H]2[C@@H]1CC2(C)C |  | 25.7 µM |  | 28.6 µM |  | 5.94 µM |  | 12 µM |  | 0.507 µM |  | > 30 µM |  | > 56 µM |  |  |  | 33.4 µM |  | 7.8 µM
4 | COc1cc2c(cc1Nc1nc(Nc3ccsc3C(N)=O)c3cc[nH]c3n1)N(C(=O)CN(C)C)CCC2(C)C | 3.62 µM | 7.1 µM | 3.22 µM | 7.42 µM | < 0.0025 µM | 2.97 µM | 0.889 µM | 5.3 µM | < 0.0025 µM | 2.04 µM | 1.18 µM | 4.97 µM | 0.975 µM | 4.69 µM | 1.9 µM | 8.91 µM | 3.33 µM | 7.39 µM | 3.08 µM | 7.11 µM
5 | COc1cc(OC)c(/C=C/c2cnc3ccccc3n2)c(OC)c1 |  | > 10 µM |  | > 10 µM |  | > 10 µM |  | > 10 µM |  | > 10 µM |  | > 10 µM |  | > 10 µM |  |  |  | > 10 µM |  | > 10 µM
6 | CCN(C(=O)c1cc(F)ccc1Oc1cncnc1N1CC2(CCN(CC3CCC(NS(=O)(=O)CC)CC3)CC2)C1)C(C)C (stereo not given) | > 100 µM | > 100 µM | > 100 µM | > 100 µM | > 100 µM | > 100 µM | > 100 µM | > 100 µM | > 100 µM | > 100 µM | > 100 µM | > 100 µM | > 100 µM | > 100 µM | > 100 µM | > 100 µM | > 100 µM | > 100 µM | > 100 µM | > 100 µM
7 | NC(=O)c1cc(-c2ccc(F)cc2)cc(-c2ccncc2)c1N | 24.3 µM | > 25 µM | > 25 µM | > 25 µM | > 25 µM | > 25 µM | > 25 µM | > 25 µM | > 25 µM | > 25 µM | 4.17 µM | > 23.6 µM | > 25 µM | > 25 µM | > 25 µM | > 25 µM | > 21.7 µM | > 25 µM | > 25 µM | > 25 µM
